From patent publication US20230077362A1 (CORTEVA AGRISCIENCE LLC, priority 2019, published 2023) come the findings set out here.

Assay [1] deals with Cabbage Looper (Trichoplusia ni) ("CL"), second instar larvae. Description: Bioassay on cabbage looper (CL), 128-well diet tray assay. The class given is in vivo. The conditions noted are these: for pest or weed control at 50 µg/cm2: Trichoplusia ni; for CL (Biological Results, rating): Cabbage Looper (Trichoplusia ni), C = Not Tested. In a few lines:
(§1)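 Second-instar larvae on diet in 128-well trays, covered and held at 25° C, 14:10 light-dark, for five to seven days. Percent mortality scored per well and averaged over eight wells; activity reported as a rating category.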

Assay [2] has as its system Beet Armyworm (Spodoptera exigua) ("BAW"), second instar larvae. Briefly: Bioassay on beet armyworm (BAW), 128-well diet tray assay. Format: in vivo. The conditions noted are these: for pest or weed control at 50 µg/cm2: Spodoptera exigua; for BAW (Biological Results, rating): Beet Armyworm (Spodoptera exigua), C = Not Tested. In a few lines:
as §1

Setting [3] is: read-out: CL (Biological Results, rating).
Setting [4] is: read-out: BAW (Biological Results, rating).

Where two headings read alike, the source gives them in different places.

For `Cc1ccc(COCC(F)(F)F)c(N2C(=O)CS/C2=N\C(=O)Nc2ccc(-c3ncn(-c4ccc(OC(F)(F)F)cc4)n3)cc2)c1` [Compound J331, (Z)-1-(3-(5-Methyl-2-((2,2,2-trifluoroethoxy)methyl)phenyl)-4-oxothiazolidin-2-ylidene)-3-(4-(1-(4-(trifluoromethoxy)phenyl)-1H-1,2,4-triazol-3-yl)phenyl)urea], the pest or weed control at 50 µg/cm2 in assay [1] (setting [3]) and in assay [2] (setting [4]) was 50 to 100% in each case.

For the molecule `Cc1ccc(COCC(F)(F)F)c(N2C(=O)CS/C2=N\C(=O)Nc2ccc(-c3ncn(-c4ccc(C(F)(F)F)cc4)n3)cc2)c1` [Compound J332, (Z)-1-(3-(5-Methyl-2-((2,2,2-trifluoroethoxy)methyl)phenyl)-4-oxothiazolidin-2-ylidene)-3-(4-(1-(4-(trifluoromethyl)phenyl)-1H-1,2,4-triazol-3-yl)phenyl)urea], the pest or weed control at 50 µg/cm2 in assay [1] (setting [3]) and in assay [2] (setting [4]) was 50 to 100% throughout.

As to `Cc1ccc(OCCC(F)(F)F)c(N2C(=O)CS/C2=N\C(=O)Nc2ccc(-c3ncn(-c4ccc(SC(F)(F)F)cc4)n3)cc2F)c1` [Compound J333, (Z)-1-(2-Fluoro-4-(1-(4-((trifluoromethyl)thio)phenyl)-1H-1,2,4-triazol-3-yl)phenyl)-3-(3-(5-methyl-2-(3,3,3-trifluoropropoxy)phenyl)-4-oxothiazolidin-2-ylidene)urea], the pest or weed control at 50 µg/cm2 in assay [1] (setting [3]) and in assay [2] (setting [4]) was 50 to 100% each time.

For the molecule `CC(C)c1ccc(N(C)C)cc1N1C(=O)CS/C1=N\C(=O)Nc1ccc(-c2ncn(-c3ccc(SC(F)(F)F)cc3)n2)cc1F` [Compound J334, (Z)-1-(3-(5-(Dimethylamino)-2-isopropylphenyl)-4-oxothiazolidin-2-ylidene)-3-(2-fluoro-4-(1-(4-((trifluoromethyl)thio)phenyl)-1H-1,2,4-triazol-3-yl)phenyl)urea], the pest or weed control at 50 µg/cm2 in assay [1] (setting [3]) and in assay [2] (setting [4]) was 50 to 100% in each case.

Regarding `CC(C)c1ccc(N(C)C)cc1N1C(=O)CS/C1=N\C(=O)Nc1ccc(-c2ncn(-c3ccc(C(F)(F)F)cn3)n2)cc1F` [Compound J336, (Z)-1-(3-(5-(Dimethylamino)-2-isopropylphenyl)-4-oxothiazolidin-2-ylidene)-3-(2-fluoro-4-(1-(5-(trifluoromethyl)pyridin-2-yl)-1H-1,2,4-triazol-3-yl)phenyl)urea], the pest or weed control at 50 µg/cm2 in assay [1] (setting [3]) and in assay [2] (setting [4]) was 50 to 100% in each case.

As for `Cc1ccc(C(C)C)c(N2C(=O)CS/C2=N\C(=O)Nc2ccc(-c3ncn(-c4ccc(C(F)(F)F)cn4)n3)cc2)c1` [Compound J337, (Z)-1-(3-(2-Isopropyl-5-methylphenyl)-4-oxothiazolidin-2-ylidene)-3-(4-(1-(5-(trifluoromethyl)pyridin-2-yl)-1H-1,2,4-triazol-3-yl)phenyl)urea], the pest or weed control at 50 µg/cm2 in assay [1] (setting [3]) and in assay [2] (setting [4]) was 50 to 100% each time.

Turning to `COC(C)c1ccc(C)cc1N1C(=O)CS/C1=N\C(=O)Nc1ccc(-c2ncn(-c3ccc(C(F)(F)F)cn3)n2)cc1` (centres unmarked) [Compound J338, (Z)-1-(3-(2-(1-Methoxyethyl)-5-methylphenyl)-4-oxothiazolidin-2-ylidene)-3-(4-(1-(5-(trifluoromethyl)pyridin-2-yl)-1H-1,2,4-triazol-3-yl)phenyl)urea], the pest or weed control at 50 µg/cm2 in assay [1] (setting [3]) and in assay [2] (setting [4]) was 50 to 100% each time.

On to `CC(C)c1ccc(N(C)C)cc1N1C(=O)CS/C1=N\C(=O)Nc1ccc(-c2ncn(-c3ccc(C(F)(F)F)cn3)n2)cc1` [Compound J339], for which the “CL (Biological Results, rating)” value in assay [1] is “A (50-100)”. Further, the “BAW (Biological Results, rating)” value in assay [2] is recorded as “A (50-100)”.

Take `COC(C)c1ccc(C)cc1N1C(=O)CS/C1=N\C(=O)Nc1ccc(-c2ncn(-c3ccc(OCC#N)cc3)n2)cc1F` (centres unmarked) [Compound J340, (Z)-1-(4-(1-(4-(Cyanomethoxy)phenyl)-1H-1,2,4-triazol-3-yl)-2-fluorophenyl)-3-(3-(2-(1-methoxyethyl)-5-methylphenyl)-4-oxothiazolidin-2-ylidene)urea]: the pest or weed control at 50 µg/cm2 in assay [1] (setting [3]) and in assay [2] (setting [4]) was 50 to 100% in each case.

Consider `COC(C)c1ccc(C)cc1N1C(=O)CS/C1=N\C(=O)Nc1ccc(-c2ncn(-c3ccc(C(F)F)cn3)n2)cc1F` (centres unmarked) [Compound J341], for which the “CL (Biological Results, rating)” value in assay [1] is “A (50-100)”. Also, the “BAW (Biological Results, rating)” value in assay [2] is “A (50-100)”.

Turning to `CC(C)c1ccc(N(C)C)cc1N1C(=O)CS/C1=N\C(=O)Nc1ccc(-c2ncn(-c3ccc(OCC#N)cc3)n2)cc1F` [Compound J342, (Z)-1-(4-(1-(4-(Cyanomethoxy)phenyl)-1H-1,2,4-triazol-3-yl)-2-fluorophenyl)-3-(3-(5-(dimethylamino)-2-isopropylphenyl)-4-oxothiazolidin-2-ylidene)urea], the pest or weed control at 50 µg/cm2 in assay [1] (setting [3]) and in assay [2] (setting [4]) was 50 to 100% in each case.

For the molecule `Cc1ccc(COCC(F)(F)F)c(N2C(=O)CS/C2=N\C(=O)Nc2ccc(-c3ncn(-c4ccc(OCC#N)cc4)n3)cc2F)c1` [Compound J343, (Z)-1-(4-(1-(4-(Cyanomethoxy)phenyl)-1H-1,2,4-triazol-3-yl)-2-fluorophenyl)-3-(3-(5-methyl-2-((2,2,2-trifluoroethoxy)methyl)phenyl)-4-oxothiazolidin-2-ylidene)urea], the pest or weed control at 50 µg/cm2 in assay [1] (setting [3]) and in assay [2] (setting [4]) was 50 to 100% throughout.

On to `COCc1ccc(C)cc1N1C(=O)CS/C1=N\C(=O)Nc1ccc(-c2ncn(-c3ccc(C(F)F)cn3)n2)cc1F` [Compound J345], for which the “CL (Biological Results, rating)” value in assay [1] is “A (50-100)”. In assay [2], the “BAW (Biological Results, rating)” value was “A (50-100)”.

For the molecule `Cc1ccc(COCC(F)(F)F)c(N2C(=O)CS/C2=N\C(=O)Nc2ccc(-c3ncn(-c4ccc(C(F)F)cn4)n3)cc2F)c1` [Compound J346], the “CL (Biological Results, rating)” value in assay [1] is reported as “A (50-100)”. Also, the “BAW (Biological Results, rating)” value in assay [2] is listed as “A (50-100)”.

Consider `CC(C)c1ccc(N(C)C)cc1N1C(=O)CS/C1=N\C(=O)Nc1ccc(-c2ncn(-c3ccc(C(F)F)cn3)n2)cc1F` [Compound J347], for which, in assay [1], the “CL (Biological Results, rating)” value is “A (50-100)”. Besides, the “BAW (Biological Results, rating)” value in assay [2] was “A (50-100)”.

`CC(C)c1ccc(N(C)C)cc1N1C(=O)CS/C1=N\C(=O)Nc1ccc(-c2ccn(-c3ccc(C(F)(F)F)cn3)n2)cc1F` [Compound J349]: the “CL (Biological Results, rating)” value in assay [1] is listed as “A (50-100)”. In assay [2], the “BAW (Biological Results, rating)” value is given as “A (50-100)”.

In the case of `CC(C)c1cc(F)c(N(C)C)cc1N1C(=O)CS/C1=N\C(=O)Nc1ccc(-c2ncn(-c3ccc(C(F)F)cn3)n2)cc1F` [Compound J351], the “CL (Biological Results, rating)” value in assay [1] is given as “A (50-100)”. Also, the “BAW (Biological Results, rating)” value in assay [2] is “A (50-100)”.

`CC(C)c1cc(F)c(N(C)C)cc1N1C(=O)CS/C1=N\C(=O)Nc1ccc(-c2ncn(-c3ccc(C(F)(F)F)cn3)n2)cc1F` [Compound J352]: the “CL (Biological Results, rating)” value in assay [1] is on record as “A (50-100)”. Further, the “BAW (Biological Results, rating)” value in assay [2] is “A (50-100)”.

For `COC(c1ccc(C)cc1N1C(=O)CS/C1=N\C(=O)Nc1ccc(-c2ncn(-c3ccc(C(F)F)cn3)n2)cc1F)C(F)(F)F` (centres unmarked) [Compound J353], in assay [1], the “CL (Biological Results, rating)” value was “A (50-100)”. In addition, the “BAW (Biological Results, rating)” value in assay [2] is given as “A (50-100)”.

Regarding `CCOC(C)c1ccc(C)cc1N1C(=O)CS/C1=N\C(=O)Nc1ccc(-c2ncn(-c3ccc(C(F)F)cn3)n2)cc1F` (centres unmarked) [Compound J354], the “CL (Biological Results, rating)” value in assay [1] is “A (50-100)”. The “BAW (Biological Results, rating)” value in assay [2] was “A (50-100)”.

As for `COc1ccc(C(C)C)c(N2C(=O)CS/C2=N\C(=O)Nc2ccc(-c3ncn(-c4ccc(C(F)F)cn4)n3)cc2F)c1` [Compound J355], the pest or weed control at 50 µg/cm2 in assay [1] (setting [3]) and in assay [2] (setting [4]) was 50 to 100% each time.

Regarding `Cc1cc(-c2ncn(-c3ccc(OCC#N)cc3)n2)ccc1NC(=O)/N=C1\SCC(=O)N1c1cc(N(C)C)ccc1C(C)C` [Compound J357, (Z)-1-(4-(1-(4-(Cyanomethoxy)phenyl)-1H-1,2,4-triazol-3-yl)-2-methylphenyl)-3-(3-(5-(dimethylamino)-2-isopropylphenyl)-4-oxothiazolidin-2-ylidene)urea], the pest or weed control at 50 µg/cm2 in assay [1] (read-out: CL rating) and in assay [2] (read-out: BAW rating) was 50 to 100% in each case.

For `COC(C)c1ccc(C)cc1N1C(=O)CS/C1=N\C(=O)Nc1ccc(-c2ncn(-c3ccc(OCC#N)cc3)n2)cc1C` (centres unmarked) [Compound J358, (Z)-1-(4-(1-(4-(Cyanomethoxy)phenyl)-1H-1,2,4-triazol-3-yl)-2-methylphenyl)-3-(3-(2-(1-methoxyethyl)-5-methylphenyl)-4-oxothiazolidin-2-ylidene)urea], the pest or weed control at 50 µg/cm2 in assay [1] (read-out: CL rating) and in assay [2] (read-out: BAW rating) was 50 to 100% each time.

In the case of `Cc1ccc(COCC(F)(F)F)c(N2C(=O)CS/C2=N\C(=O)Nc2ccc(-c3ncn(-c4ccc(OCC#N)cc4)n3)cc2C)c1` [Compound J359, (Z)-1-(4-(1-(4-(Cyanomethoxy)phenyl)-1H-1,2,4-triazol-3-yl)-2-methylphenyl)-3-(3-(5-methyl-2-((2,2,2-trifluoroethoxy)methyl)phenyl)-4-oxothiazolidin-2-ylidene)urea], the pest or weed control at 50 µg/cm2 in assay [1] (read-out: CL rating) and in assay [2] (read-out: BAW rating) was 50 to 100% each time.

As to `Cc1ccc(OCCC(F)(F)F)c(N2C(=O)CS/C2=N\C(=O)Nc2ccc(-c3ncn(-c4ccc(OCC#N)cc4)n3)cc2C)c1` [Compound J360, (Z)-1-(4-(1-(4-(Cyanomethoxy)phenyl)-1H-1,2,4-triazol-3-yl)-2-methylphenyl)-3-(3-(5-methyl-2-(3,3,3-trifluoropropoxy)phenyl)-4-oxothiazolidin-2-ylidene)urea], the pest or weed control at 50 µg/cm2 in assay [1] (read-out: CL rating) and in assay [2] (read-out: BAW rating) was 50 to 100% each time.
